Patent US20250127162A1, “METHODS AND COMPOSITIONS FOR CONTROLLING PESTS IN RICE” (Globachem NV, priority 2022, published 2025)

Tested on: Rice
Test: Phytotoxicity PHYGEN on rice (Example 1, Trials 3-4, Thailand)
Format: in vivo
Parameters: key: % leaf necrosis compared with untreated plants
Text: “Low Phytotoxicity” of pelargonic acid, as used herein means that the toxic effect on plants is absent or at such a level so as not to adversely impact the growth and/or yield of the plant under a given set of test conditions, e.g., at a given concentration of pelargonic acid. Phytotoxic effects may be measured in a number of different ways, for example, according to the principals set out in OEPP/EPPO Bulletin (2014) 44 (3), 265-273 “PP 1/135 (4) Phytotoxicity assessment”. The phytotoxic effect on plants may be assessed visually as a function of the percentage of discoloration to the leaves and/or the appearance of necrosis. When the pelargonic acid compositions are applied to the foliage of the rice plants in accordance with the teachings herein, will typically result in a level of phytotoxicity of less than 20%, preferably less than 15%, more preferably less than 10% necrosis of the leaves in comparison to untreated plants. Preferred uses of the invention will typically result in phytotoxicity of 7% or less, whilst the most preferred uses will typically result in phytotoxicity of 5% or less. The above values are approximate as any purely visual assessment is likely to contain a degree of subjectivity.
All applications were made with an EC formulation containing 650 g/L of pelargonic acid (e.g., 685 g/L of 95% purity pelargonic acid), an anionic emulsifier and a branched fatty acid ester solvent.
Application A was made to the crops at the beginning of infestations; for these trials, Stage BBCH 59; Application B was made 14 days after Application A.
Trial 3 was conducted in Thailand using a water volume of 500 L/ha of water per application unless otherwise indicated. Insect Damage (DAMINS %), Insect Damage (Number) and Phytotoxicity were assessed at various treatment evaluation intervals.
Trial 4 was conducted in Thailand using a water volume of 500 L/ha of water per application unless otherwise indicated. Insect Damage (DAMINS %), Insect Damage (Number) and Phytotoxicity were assessed at various treatment evaluation intervals.

Measured: Phytotoxicity (PHYGEN)

CCCCCCCCC(=O)O [PA 650 g/ha, pelargonic acid]
0: Trial 3, 0 DAA, water volume 200 L/ha | Trial 3, 0 DAA, water volume 500 L/ha | Trial 3, 0 DAB, water volume 200 L/ha | Trial 3, 0 DAB, water volume 500 L/ha | Trial 3, 7 DAA, water volume 200 L/ha | Trial 3, 7 DAA, water volume 500 L/ha | Trial 3, 7 DAB, water volume 200 L/ha | Trial 3, 7 DAB, water volume 500 L/ha | Trial 3, 10 DAA, water volume 200 L/ha | Trial 3, 10 DAA, water volume 500 L/ha | Trial 3, 10 DAB, water volume 200 L/ha | Trial 3, 10 DAB, water volume 500 L/ha | Trial 3, 14 DAB, water volume 200 L/ha | Trial 3, 14 DAB, water volume 500 L/ha | Trial 3, 21 DAB, water volume 200 L/ha | Trial 3, 21 DAB, water volume 500 L/ha | Trial 4, 0 DAA, water volume 200 L/ha | Trial 4, 0 DAA, water volume 500 L/ha | Trial 4, 0 DAB, water volume 200 L/ha | Trial 4, 0 DAB, water volume 500 L/ha | Trial 4, 7 DAA, water volume 200 L/ha | Trial 4, 7 DAA, water volume 500 L/ha | Trial 4, 7 DAB, water volume 200 L/ha | Trial 4, 7 DAB, water volume 500 L/ha | Trial 4, 10 DAA, water volume 200 L/ha | Trial 4, 10 DAA, water volume 500 L/ha | Trial 4, 10 DAB, water volume 200 L/ha | Trial 4, 10 DAB, water volume 500 L/ha | Trial 4, 14 DAB, water volume 200 L/ha | Trial 4, 14 DAB, water volume 500 L/ha | Trial 4, 21 DAB, water volume 200 L/ha | Trial 4, 21 DAB, water volume 500 L/ha
